# Test results as given in ChEMBL document CHEMBL1146119, “Amino functionalized novel cholic acid derivatives induce HIV-1 replication and syncytia formation in T cells” (J Med Chem, 2006).
# The source made the active and inactive calls. The calls are words filed in the database; no cut-off is given here.
# Test system: Human immunodeficiency virus 1
# Test: Induction of HIV1 NL4-3 virus replication in CEM-GFP cells
# Assay type: functional, organism-based
row,SMILES,Activity
1,C[C@H](CCC(=O)O)[C@H]1CC[C@H]2[C@@H]3[C@H](O)C[C@@H]4C[C@H](O)CC[C@]4(C)[C@H]3C[C@H](O)[C@]12C,inactive
2,COC(=O)CC[C@@H](C)[C@H]1CC[C@H]2[C@H]3C(=C(N)C(=O)[C@]12C)[C@@]1(C)CC[C@@H](OC(C)=O)C[C@H]1C[C@H]3OC(C)=O,Active
3,COC(=O)CC[C@@H](C)[C@H]1CC[C@H]2[C@H]3[C@H]([C@H](N)[C@H](O)[C@]12C)[C@@]1(C)CC[C@@H](OC(C)=O)C[C@H]1C[C@H]3OC(C)=O,Active
4,COC(=O)CC[C@@H](C)[C@H]1CC[C@H]2[C@H]3[C@H]([C@@H](N)[C@@H](O)[C@]12C)[C@@]1(C)CC[C@@H](OC(C)=O)C[C@H]1C[C@H]3OC(C)=O,Active
5,COC(=O)CC[C@@H](C)[C@H]1CC[C@H]2[C@@H]3[C@H](OC(C)=O)C[C@@H]4C[C@H](OC(C)=O)CC[C@]4(C)[C@H]3C[C@H](O)[C@]12C,inactive
6,COC(=O)CC[C@@H](C)[C@H]1CC[C@H]2[C@H]3[C@H]([C@H](N=[N+]=[N-])C(=O)[C@]12C)[C@@]1(C)CC[C@@H](OC(C)=O)C[C@H]1C[C@H]3OC(C)=O,Active
7,COC(=O)CC[C@@H](C)[C@H]1CC[C@H]2[C@H]3[C@H]([C@@H](N=[N+]=[N-])C(=O)[C@]12C)[C@@]1(C)CC[C@@H](OC(C)=O)C[C@H]1C[C@H]3OC(C)=O,Active
8,COC(=O)CC[C@@H](C)[C@H]1CC[C@H]2[C@H]3[C@H]([C@H](N)C(=O)[C@]12C)[C@@]1(C)CC[C@@H](OC(C)=O)C[C@H]1C[C@H]3OC(C)=O,Active
